“Also recorded” adds a separate entry of the source.
Tests used:
RORγt Cys320Ala mutant = target: T1, RORγt Cys320Ala mutant (Homo sapiens, UniProt P51449, C320A); assay: Ligation to RORγt Cys320Ala mutant, Q-TOF MS; type: binding
T1 sequence (P51449 265-507 C320A): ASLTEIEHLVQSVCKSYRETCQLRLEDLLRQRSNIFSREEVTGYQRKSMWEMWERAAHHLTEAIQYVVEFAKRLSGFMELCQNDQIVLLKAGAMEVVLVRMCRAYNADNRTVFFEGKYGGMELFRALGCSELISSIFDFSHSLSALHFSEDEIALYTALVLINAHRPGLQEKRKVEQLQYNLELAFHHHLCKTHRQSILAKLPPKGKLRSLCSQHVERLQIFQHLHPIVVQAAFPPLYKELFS

RORγt LBD = target: T2, RORγt LBD (Homo sapiens, UniProt P51449); assay: TR-FRET coactivator recruitment assay, dose-response of covalent probes; type: biochemical; conditions: TR-FRET dose-response curve plateau
T2 sequence (P51449 265-518): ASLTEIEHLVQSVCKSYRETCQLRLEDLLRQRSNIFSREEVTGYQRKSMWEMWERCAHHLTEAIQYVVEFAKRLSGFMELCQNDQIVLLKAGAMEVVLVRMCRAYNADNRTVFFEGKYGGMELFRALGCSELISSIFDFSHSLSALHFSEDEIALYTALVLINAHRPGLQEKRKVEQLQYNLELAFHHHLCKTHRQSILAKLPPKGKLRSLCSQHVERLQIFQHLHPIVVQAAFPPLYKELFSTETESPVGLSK

[1] = target: T3, ligated RORγt (covalent orthosteric probe at Cys320) (Homo sapiens, UniProt P51449); type: biochemical
T3 sequence (P51449 265-518): T2 sequence (P51449 265-518)

PPARγ = target: T4, PPARγ (Homo sapiens, UniProt P37231); assay: Ligation; type: binding
T4 sequence (P37231 1-505): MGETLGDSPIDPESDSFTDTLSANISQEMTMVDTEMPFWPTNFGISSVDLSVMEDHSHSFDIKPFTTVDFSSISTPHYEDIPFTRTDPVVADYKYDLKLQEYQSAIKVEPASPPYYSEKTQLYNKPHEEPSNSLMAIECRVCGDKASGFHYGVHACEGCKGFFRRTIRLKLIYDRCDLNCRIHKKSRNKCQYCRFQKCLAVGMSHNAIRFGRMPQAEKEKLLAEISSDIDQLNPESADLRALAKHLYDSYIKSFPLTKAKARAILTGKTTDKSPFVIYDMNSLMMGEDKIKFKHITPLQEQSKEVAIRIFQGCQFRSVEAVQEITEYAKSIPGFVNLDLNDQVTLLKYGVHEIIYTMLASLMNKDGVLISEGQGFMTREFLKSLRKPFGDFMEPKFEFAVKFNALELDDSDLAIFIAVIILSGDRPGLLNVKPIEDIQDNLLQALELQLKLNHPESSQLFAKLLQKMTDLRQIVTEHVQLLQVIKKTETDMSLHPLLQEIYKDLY

| Structure (SMILES) | occlusion of the orthosteric site by the ligated probe [1] | Profile (full/partial inverse agonistic character) (RORγt LBD) | also measured |
| --- | --- | --- | --- |
| O=C(Nc1ccccc1)c1cc([N+](=O)[O-])ccc1Cl [Compound 1] | occlusion of the orthosteric binding site | – | Ligation to RORγt Cys320Ala mutant (RORγt Cys320Ala mutant): No ligation; Profile (full/partial inverse agonistic character) (RORγt LBD; listed as 1 GW9662): Full inv. ago.; Profile (full/partial inverse agonistic character) (RORγt LBD; listed as GW9662): full inverse agonist |
| O=C(Nc1ccsc1)c1cc([N+](=O)[O-])ccc1Cl [Compound 11] | – | full inverse agonistic behavior; also recorded: Full inv. ago | – |
| CNC(=O)c1cc([N+](=O)[O-])ccc1Cl [Compound 2] | – | – | Ligation to PPARγ (PPARγ): fully ligate |
| Cc1ccccc1NC(=O)c1cc([N+](=O)[O-])ccc1Cl [Compound 9] | Clear occlusion of the orthosteric site | partial inverse agonistic behavior; also recorded: Partial inv. ago | – |

Reference: article PMC8040040 (ACS Medicinal Chemistry Letters, 2021)
